Measured values published in US8163756B2 (priority 2004, dated 2012).
pIC50: −log10 of the molar value.

Assays:
Format in all cases: biochemical
KDR kinase [1] = target: T1, KDR kinase (Homo sapiens, UniProt P35968, DEL940-989/E990V); assay: KDR kinase assay K2 (as K1, 2.1 nM enzyme, 2 h pre-incubation, 1.0 mM ATP); conditions: Method K2; read-out: KDR Data (IC50)
Description: (§1) IC50 values were calculated from a series of percent inhibition values determined at a range of inhibitor concentrations using software routines as implemented in the GraphPad Prism software package.

B-Raf(V599E) kinase = B-Raf(V599E) kinase (Homo sapiens, UniProt P15056, V600E); assay: B-Raf(V599E) kinase assay B1 (construct 1, MEK1 substrate, coupled spectrophotometric)
Description: The test compounds were incubated with the reaction mixtureat 30° C. for 2 h. […] The reaction rate was calculated using the […] time frame. […] IC50 values were calculated from a series of percent inhibition values determined at a range of inhibitor concentrations using software routines as implemented in the GraphPad Prism software package.

Abl kinase = target: T2, Abl kinase (Homo sapiens, UniProt P00519); assay: Abl kinase assay A1 (pyruvate kinase/lactate dehydrogenase coupled, spectrophotometric); conditions: Method A1; read-out: Abl Data (IC50)
T2 sequence (P00519 229-512): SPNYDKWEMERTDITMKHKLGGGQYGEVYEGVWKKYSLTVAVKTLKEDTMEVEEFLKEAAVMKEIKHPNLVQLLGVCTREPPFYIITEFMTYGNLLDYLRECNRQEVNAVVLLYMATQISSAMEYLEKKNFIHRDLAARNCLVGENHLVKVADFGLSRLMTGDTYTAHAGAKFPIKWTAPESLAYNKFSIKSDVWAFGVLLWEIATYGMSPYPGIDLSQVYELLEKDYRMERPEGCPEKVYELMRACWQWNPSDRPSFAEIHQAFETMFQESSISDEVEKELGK
Description: as §1

KDR kinase [2] = target: T1, KDR kinase; assay: KDR kinase assay K1 (pyruvate kinase/lactate dehydrogenase coupled, spectrophotometric); conditions: Method K1; read-out: KDR Data (IC50)
Description: as §1

[3] = target: phosphorylated p-38-alpha kinase (Homo sapiens, UniProt Q16539); assay: P-38 alpha kinase assay P1 (coupled spectrophotometric, 2 h pre-incubation); conditions: method P1 (2 h pre-incubation); read-out: P-38 Data
Sequence of phosphorylated p-38-alpha kinase (Q16539 1-360 isoform Q16539-2): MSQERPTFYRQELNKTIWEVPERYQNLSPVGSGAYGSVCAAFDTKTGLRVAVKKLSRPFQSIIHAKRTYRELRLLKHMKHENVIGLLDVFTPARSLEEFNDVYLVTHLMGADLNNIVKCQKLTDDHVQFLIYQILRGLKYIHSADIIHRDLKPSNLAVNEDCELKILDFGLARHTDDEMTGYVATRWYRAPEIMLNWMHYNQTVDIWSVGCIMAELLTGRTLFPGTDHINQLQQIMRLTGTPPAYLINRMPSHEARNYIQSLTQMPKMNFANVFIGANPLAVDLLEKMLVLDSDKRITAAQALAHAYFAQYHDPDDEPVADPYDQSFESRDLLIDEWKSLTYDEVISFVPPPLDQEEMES

Sequence of B-Raf(V599E) kinase (P15056 with tags, fused parts or gaps V600E): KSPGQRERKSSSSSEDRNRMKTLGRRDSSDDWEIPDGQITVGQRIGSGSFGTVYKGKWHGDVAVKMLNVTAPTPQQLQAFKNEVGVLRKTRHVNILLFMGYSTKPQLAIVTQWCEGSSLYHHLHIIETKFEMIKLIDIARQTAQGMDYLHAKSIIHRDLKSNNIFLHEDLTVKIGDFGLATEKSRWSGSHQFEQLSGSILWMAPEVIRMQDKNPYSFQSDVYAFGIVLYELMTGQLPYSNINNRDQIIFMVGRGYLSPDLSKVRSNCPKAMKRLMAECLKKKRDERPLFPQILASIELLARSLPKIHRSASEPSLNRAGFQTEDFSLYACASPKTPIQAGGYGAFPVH
T1 sequence (P35968 with tags, fused parts or gaps DEL940-989/E990V): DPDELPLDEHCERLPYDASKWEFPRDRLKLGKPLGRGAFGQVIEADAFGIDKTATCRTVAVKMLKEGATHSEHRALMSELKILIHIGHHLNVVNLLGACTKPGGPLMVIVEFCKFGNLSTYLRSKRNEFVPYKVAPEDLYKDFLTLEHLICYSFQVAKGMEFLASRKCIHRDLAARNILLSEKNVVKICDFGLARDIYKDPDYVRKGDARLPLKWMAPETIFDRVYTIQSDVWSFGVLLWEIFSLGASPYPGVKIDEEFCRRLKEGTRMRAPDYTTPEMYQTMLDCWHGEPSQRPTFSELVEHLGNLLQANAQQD

| SMILES | pIC50 (KDR kinase [1]) | pIC50 (B-Raf(V599E) kinase) | pIC50 (Abl kinase) | pIC50 (KDR kinase [2]) | pIC50 [3] |
| --- | --- | --- | --- | --- | --- |
| CC(C)(C)c1cc(NC(=O)Nc2cccc(Cl)c2Cl)n(-c2cccc(Br)c2)n1 [Example 49, 1-(1-(3-bromophenyl)-3-t-butyl-1H-pyrazol-5-yl)-3-(2,3-dichlorophenyl)urea] | 7.07 | 8.42 | – | – | – |
| CC(C)(C)c1cc(NC(=O)Nc2cccc(Cl)c2Cl)n(-c2ccc3c(c2)CN[C@H](C(=O)O)C3)n1 [Example 177, (3S)-7-(3-t-butyl-5-(3-(2,3-dichlorophenyl)ureido)-1H-pyrazol-1-yl)-1,2,3,4-tetra-hydroisoquinoline-3-carboxylic acid] | – | 8.20 | 5.74 | 6.64 | 7.37 |
| CC(C)(C)c1cc(NC(=O)Nc2cccc(Cl)c2Cl)n(-c2ccc3c(c2)CN[C@H](C(N)=O)C3)n1 [Example 178, 1-(3-t-butyl-1-((3S)-3-carbamoyl-1,2,3,4-tetrahydroisoquinolin-7-yl)-1 H-pyrazol-5-yl)-3-(2,3-dichlorophenyl)urea] | – | 8.70 | 6.64 | 6.74 | 7.34 |
| CC(C)(C)c1cc(NC(=O)Nc2cccc(Cl)c2Cl)n(-c2ccc3c(c2)C[C@@H](C(=O)O)NC3)n1 [Example 186, (3S)-6-(3-t-butyl-5-(3-(2,3-dichlorophenyl)ureido)-1H-pyrazol-1-yl)-1,2,3,4-tetrahydroisoquinoline-3-carboxylic acid] | – | 8.04 | 7.22 | 6.05 | 7.30 |
| CC(C)(C)c1cc(NC(=O)N[C@H]2CCc3ccccc32)n(-c2ccc3c(c2)CCNC3)n1 [Example 199, 1-(3-t-butyl-1-(1,2,3,4-tetrahydroisoquinolin-6-yl)-1H-pyrazol-5-yl)-3-((S)-2,3-dihydro-1H-inden-1-yl)urea] | 4.46 | – | – | – | – |
| CC(C)(C)c1cc(NC(=O)Nc2ccc(F)cc2F)n(-c2ccc3c(c2)CCN(S(C)(=O)=O)C3)n1 [Example 200, 1-(3-t-butyl-1-(2-(methylsulfonyl)-1,2,3,4-tetrahydroisoquinolin-6-yl)-1H-pyrazol-5-yl)-3-(2,4-difluorophenyl)urea] | 5.57 | – | – | – | – |
| CC(C)(C)c1cc(NC(=O)Nc2ccc(F)c(F)c2)n(-c2cccc(C#N)c2)n1 [Example 206, 1-(3-t-butyl-1-(3-cyanophenyl)-1H-pyrazol-5-yl)-3-(3,4-difluorophenyl)urea] | 6.32 | – | – | – | – |
| CC(C)(C)c1cc(NC(=O)Nc2cc(F)cc(F)c2)n(-c2cccc(C#N)c2)n1 [Example 208, 1-(3-t-butyl-1-(3-cyanophenyl)-1H-pyrazol-5-yl)-3-(3,5-difluorophenyl)urea] | 6.33 | – | – | – | – |
| CC(C)(C)c1cc(NC(=O)Nc2cc(F)cc(F)c2F)n(-c2cccc(C#N)c2)n1 [Example 209, 1-(3-t-butyl-1-(3-cyanophenyl)-1H-pyrazol-5-yl)-3-(2,3,5-trifluorophenyl)urea] | 6.59 | – | – | – | – |
| CC(C)(C)c1cc(NC(=O)Nc2ccc(Cl)cc2)n(-c2cccc(CN3C(=O)C(=O)NS3(=O)=O)c2)n1 [Example 225, 1-{5-t-butyl-2-[3-(1,1,3,4-tetraoxo-1λ^6-[1,2,5]thiadiazolidin-2-ylmethyl)phenyl]-2H-pyrazol-3-yl}-3-(4-chlorophenyl)urea] | 5.02 | 6.77 | – | – | – |
| COc1cccc(-n2nc(C(C)(C)C)cc2NC(=O)Nc2cccc(Br)c2)c1 [Example 232, 1-(3-t-butyl-1-(3-methoxyphenyl)-1H-pyrazol-5-yl)-3-(3-bromophenyl)urea] | 5.59 | 7.42 | – | – | – |
| CC(C)(C)c1cc(NC(=O)Nc2cccc(F)c2F)n(-c2ccc(CCO)cc2)n1 [Example 262, 1-(3-t-butyl-1-(4-(2-hydroxyethyl)phenyl)-1H-pyrazol-5-yl)-3-(2,3-difluoro-phenyl)urea] | 5.57 | 7.47 | – | – | – |
| CC(C)(C)c1cc(NC(=O)Nc2ccccc2F)n(-c2cccc(CCC(=O)O)c2)n1 [Example 265, 3-(3-{3-t-butyl-5-[3-(2-fluorophenyl)ureido]-1H-pyrazol-1-yl}-phenyl)propionic acid] | 5.01 | 7.85 | – | – | – |
| Cn1[nH]c(=O)n(Cc2cccc(-n3nc(C(C)(C)C)cc3NC(=O)Nc3cccc(Cl)c3Cl)c2)c1=O [Example 268, 1-{5-t-butyl-2-[3-(1-methyl-3,5-dioxo-[1,2,4]triazolidin-4-ylmethyl)-phenyl]-2H-pyrazol-3-yl}-3-(2,3-dichloro-phenyl)-urea] | 5.59 | 7.96 | – | – | – |
| CC(C)(C)c1cc(NC(=O)Nc2cccc(F)c2F)n(-c2ccc3ncccc3c2)n1 [Example 283, 1-(3-t-butyl-1-(quinolin-6-yl)-1H-pyrazol-5-yl)-3-(2,3-difluorophenyl)urea] | 6.36 | 8.19 | – | – | – |
| CC(C)(C)c1cc(NC(=O)Nc2cc(F)c(F)cc2F)n(-c2ccc3[nH]c(=O)ccc3c2)n1 [Example 330] | 6.41 | 8.49 | – | – | – |
| CC(C)(C)c1cc(NC(=O)Nc2ccc(F)c(F)c2F)n(-c2ccc3[nH]c(=O)ccc3c2)n1 [Example 333, 1-(3-t-butyl-1-(2-oxo-1,2-dihydroquinolin-6-yl)-1H-pyrazol-5-yl)-3-(2,3,4-trifluorophenyl)urea] | 6.64 | 8.47 | – | – | – |
| CC(C)(C)c1cc(NC(=O)Nc2cccc(F)c2F)n(-c2ccc3c(c2)CCNC(=O)C3)n1 [Example 334, 1-(3-t-butyl-1-(2-oxo-2,3,4,5-tetrahydro-1H-benzo[d]azepin-7-yl)-1 H-pyrazol-5-yl)-3-(2,3-difluorophenyl)urea] | 5.47 | 7.96 | – | – | – |
| COc1cccc(-n2nc(C(C)(C)C)cc2NC(=O)Nc2ccc(Cl)c(Cl)c2)c1 [Example 337, 1-(3-t-butyl-1-(3-methoxyphenyl)-1H-pyrazol-5-yl)-3-(3,4-dichlorophenyl)urea] | 5.70 | – | – | – | – |
| COc1cccc(-n2nc(C(C)(C)C)cc2NC(=O)Nc2ccc([N+](=O)[O-])cc2)c1 [Example 338, 1-(3-t-butyl-1-(3-methoxyphenyl)-1H-pyrazol-5-yl)-3-(4-nitrophenyl)urea] | 5.30 | – | – | – | – |
| CC(C)(C)c1cc(NC(=O)Nc2ccc(Cl)cc2)n(-c2ccc3ncccc3c2)n1 [Example 339, 1-[3-t-butyl-1-(quinolin-6-yl)-1H-pyrazol-5-yl]-3-(4-chlorophenyl)urea] | 5.92 | – | – | – | – |
| CC(C)(C)c1cc(NC(=O)Nc2ccc(Cl)cc2)n(-c2cccc(CCO)c2)n1 [Example 342, 1-{3-t-butyl-1-[3-(2-hydroxyethyl)phenyl]-1H-pyrazol-5-yl}-3-(4-chlorophenyl)-urea] | 5.24 | – | – | – | – |
| CC(C)(C)c1cc(NC(=O)Nc2ccc(Cl)cc2)n(-c2cccc(CNC(=O)N3CCOCC3)c2)n1 [Example 343, 1-(3-t-butyl-1-{3-[(morpholine-4-carboxamido)methyl]phenyl}-1H-pyrazol-5-yl)-3-(4-chlorophenyl)urea] | 4.74 | – | – | – | – |
| CCOC(=O)C1CCN(C(=O)Cc2cccc(-n3nc(C(C)(C)C)cc3NC(=O)Nc3cccc(Cl)c3Cl)c2)CC1 [Example 344, ethyl 1-[2-(3-{3-t-butyl-5-[3-(2,3-dichlorophenyl)ureido]-1H-pyrazol-1-yl}phenyl)acetyl]piperidine-4-carboxylate] | 5.57 | – | – | – | – |
| CCOC(=O)C1CCCN(C(=O)Cc2ccc(-n3nc(C(C)(C)C)cc3NC(=O)Nc3cccc(Cl)c3Cl)cc2)C1 (centres unmarked) [Example 346, ethyl 1-[2-(4-{3-t-butyl-5-[3-(2,3-dichlorophenyl)ureido]-1H-pyrazol-1-yl}phenyl)acetyl]piperidine-3-carboxylate] | 5.77 | – | – | – | – |
| CC(C)(C)c1cc(NC(=O)Nc2cccc3ccccc23)n(-c2ccc3c(c2)C(=O)NCC3)n1 [Example 348, 1-[3-t-butyl-1-(1-oxo-1,2,3,4-tetrahydroisoquinolin-7-yl)-1 H-pyrazol-5-yl]-3-(naphthalen-1-yl)urea] | 4.78 | – | – | – | – |
| CC(C)(C)c1cc(NC(=O)Nc2cccc(F)c2F)n(-c2ccc(CC(=O)O)cc2)n1 [Example 382, 2-(4-(3-t-butyl-5-(3-(2,3-difluorophenyl)ureido)-1H-pyrazol-1-yl)phenyl)acetic acid] | 4.99 | 7.11 | – | – | – |
| CC(C)(C)c1cc(NC(=O)Nc2cccc(Cl)c2Cl)n(-c2cccc(CC(=O)N3CCS(=O)(=O)CC3)c2)n1 [Example 396, 1-(3-t-butyl-1-{3-[2-(1,1-dioxo-1[…]6-thiomorpholin-4-yl)-2-oxoethyl]phenyl}-1H-pyrazol-5-yl)-3-(2,3-dichlorophenyl)urea] | 5.51 | 7.49 | – | – | – |
| CCOC(=O)C1CCCN(C(=O)Cc2cccc(-n3nc(C(C)(C)C)cc3NC(=O)Nc3cccc(Cl)c3Cl)c2)C1 (centres unmarked) [Example 397, ethyl 1-[2-(3-{3-t-butyl-5-[3-(2,3-dichlorophenyl)ureido]-1H-pyrazol-1-yl}phenyl)acetyl]piperidine-3-carboxylate] | 5.47 | 7.24 | – | – | – |
| CCOC(=O)C1CCN(C(=O)Cc2ccc(-n3nc(C(C)(C)C)cc3NC(=O)Nc3cccc(Cl)c3Cl)cc2)CC1 [Example 497] | 5.92 | 7.33 | – | – | – |
